Values of other authors in the CATMoS acute toxicity set (Mansouri et al. 2021).
Values joined by “and” are separate entries in the source; they are usually repeats but may differ in a detail not shown here. Equal values may be shown once.

Assay: rat acute oral toxicity
Conditions: in vivo
Excerpt: […]The data set underlying the modeling effort for this project was initially compiled by NICEATM and U.S. EPA’s CCTE. Briefly, LD50 data were collected from rat acute oral systemic toxicity tests, including limit tests, ranges/confidence intervals, and discrete LD50 values. The full data set included 21,200 LD50 entries for 15,688 substances. […] Data were reviewed to ensure that LD50 values with obvious errors in the extracted data such as unit conversion errors (e.g., comma and decimal separator misplacements) were either fixed or removed. After this review, 16,209 LD50 values remained. Many of the chemicals represented had multiple LD50 entries, requiring that a single representative value per Chemical Abstracts Service Registry Number (CASRN) identifier be defined to facilitate modeling efforts. Based on ATWG feedback and to define the representative LD50 as a protective value while accounting for the distribution across multiple LD50s, the median of the lowest quartile was computed using only discrete LD50 values (omitting limit test data and range and confidence interval data). A detailed summary of the data compilation is available online on the NICEATM webpage dedicated to the collaborative modeling project (NTP 2020).
[…][…] For categorical designations, limit test and range/confidence interval LD50 data were integrated wherever possible. As such, the number of chemicals with end point values/calls varies across the modeling end points (Table 3) based on whether chemicals had representative LD50 values and/or other data. If a chemical had both, the representative value was used to determine categorical calls rather than limit test data. Some data were useable only for certain end points and categories depending on the thresholds. For example, ranges that spanned multiple hazard categories were considered only for the binary (very toxic/nontoxic) end points and omitted from rendering a determination for hazard category assignment.
[…]The final data set comprising 11,992 chemicals was split into training and evaluation sets […], respectively. This process was performed semirandomly by ordering chemicals based on the five end points (categorical and continuous LD50 values) and partitioning every fourth record into the evaluation set accordingly. This approach was taken to ensure an equivalent distribution of the LD50 values and the different hazard categories between the training and the evaluation sets without supervised sampling of the chemicals based on structures (Figure 1A). The sources of the chemical structures were also kept equivalent between the two sets, with chemical structures obtained from DSSTox, being the highest quality, representing over 75% of each set (Figure 1B).

CCOC(=O)C1=C(COCCN)NC(C)=C(C(=O)OC)C1c1ccccc1Cl (stereo not drawn)
LD50: 393 mg/kg

CC(C)[N+](C)(CCOC(=O)C1c2ccccc2Oc2ccccc21)C(C)C
LD50: 370 mg/kg

NCCNCCO
LD50: 3000 mg/kg

CCc1cnc(C)cn1
LD50: 900 mg/kg

CCCC=C(C=NCCCCCCCCCCCCCCCCCCCCC)CC
LD50: 5320 mg/kg

CCN(CC)CCNc1ccc(CO)c2sc3ccccc3c(=O)c12
LD50: 980 mg/kg

CC(=O)N(O)CCCCCNC(=O)CCC(=O)N(O)CCCCCNC(=O)CCC(=O)N(O)CCCCCN
LD50: 17300 mg/kg

C#CC(C)(C)NC(=O)C=Cc1cc(OC)c(OC)c(OC)c1
LD50: 570 mg/kg

CC(C)COC(=S)S
LD50: 1290 mg/kg

OCC(O)Oc1ccc(Cl)cc1Cl (stereo not drawn)
LD50: 1070 mg/kg

C=CC1(C)OC(=O)N(c2cc(Cl)cc(Cl)c2)C1=O (stereo not drawn)
LD50: 10000 mg/kg

Cc1ccc(C(=O)c2cccc3c2CCC3C(=O)O)cc1 (stereo not drawn)
LD50: 244 mg/kg

COc1ccc2ccc(=O)oc2c1CC=C(C)C
LD50: 2900 mg/kg

O=C(O)CSc1cc(Cl)ccc1Cl
LD50: 1900 mg/kg

COc1cc(C(=O)OCCCN(C)CCN(C)CCCOC(=O)c2cc(OC)c(OC)c(OC)c2)cc(OC)c1OC
LD50: 2550 mg/kg

CCOC(=O)C1=CN(C)C2CCCC(C)N2C1=O (stereo not drawn)
LD50: 378 mg/kg

CCc1c(C)nc2cc(C)cc(C)n2c1=O
LD50: 1500 mg/kg

C=C1C(=O)O[C@@H]2C[C@@H](C)[C@@H]3C=CC(=O)[C@@]3(C)[C@@H](O)[C@H]12
LD50: 125 mg/kg

CC(C)OP(=S)(CCl)Sc1ccc(Cl)cc1 (stereo not drawn)
LD50: 26 mg/kg

O=C(O)C1C2CCC(O2)C1C(=O)O (stereo not drawn)
LD50: 51 mg/kg

O=C(O)c1cc2ccccc2oc1=O
LD50: 200 mg/kg

COc1ccc2c3c1O[C@H]1C[C@@H](O)C=C[C@@]31CCN(C)C2
LD50: 75 mg/kg

C[N+](C)(N)CCBr
LD50: 3200 mg/kg

Oc1ccc(C(c2ccc(O)cc2)c2ccccn2)cc1
LD50: 8550 mg/kg

C[N+](C)(C)CCCCCCCCCC[N+](C)(C)C
LD50: 85 mg/kg

CCCCCCCCCCCCCCCCCC(=O)Cl
LD50: 7500 mg/kg

CCNP(=S)(OC)Oc1cc(Cl)c(Cl)cc1Cl (stereo not drawn)
LD50: 450 mg/kg

NNC(=O)CSc1cc(Oc2ccc(F)cc2)ncn1
LD50: 400 mg/kg

Nc1ccc(S(=O)(=O)O)cc1
LD50: 5380 mg/kg

O=C1CCCO1
LD50: 1540 mg/kg

CC1OCC(CN(C)C)O1 (stereo not drawn)
LD50: 575 mg/kg

CC(O)CNC(C)(C)Cc1ccc(Cl)cc1 (stereo not drawn)
LD50: 150 mg/kg

CCCCOc1ccccc1NC(C)=O
LD50: 2900 mg/kg

C=CC(=O)NC(OC)C(=O)OC (stereo not drawn)
LD50: 2090 mg/kg

COc1ccc2cc(C(C)C(=O)OCCO)ccc2c1 (stereo not drawn)
LD50: 1720 mg/kg

CCC(=O)c1ccc2c(c1)N(CCCN(C)C)c1ccccc1S2
LD50: 500 mg/kg

CC1OC1C1CCC2(C)OC2C1 (stereo not drawn)
LD50: 5630 mg/kg

CN(C)S(=O)(=O)N(SC(F)(Cl)Cl)c1ccccc1
LD50: 500 mg/kg

CCCCC(CC)CNCC(C)(N)CNCC(CC)CCCC (stereo not drawn)
LD50: 800 mg/kg

CC(C)C1=Nc2ccccc2C1=C(N)c1cccnc1
LD50: 350 mg/kg

Cc1cc(S(=O)(=O)O)cc(C)c1O
LD50: 2650 mg/kg

Nc1ccc2[nH]c3c(c2c1)CCCC3
LD50: 374 mg/kg

O=P(O)(O)Oc1ccccc1
LD50: 2290 mg/kg

C=CCC(CCN(CC)CC)(C(=O)OCC)c1ccccc1 (stereo not drawn)
LD50: 200 mg/kg

Nc1ccc(-c2ccc(-n3nc4ccc5c(S(=O)(=O)O)cc(S(=O)(=O)O)cc5c4n3)cc2)cc1S(=O)(=O)O
LD50: 9500 mg/kg

NCC1CC2CCC1C2 (stereo not drawn)
LD50: 1410 mg/kg

COc1cc(S(C)=O)ccc1-c1nc2ncccc2[nH]1 (stereo not drawn)
LD50: 315 mg/kg

CC(=O)Nc1cc(Cl)c([N+](=O)[O-])cc1Cl
LD50: 2830 mg/kg

O=C1OCc2c(Cl)c(Cl)c(Cl)c(Cl)c21
LD50: 20000 mg/kg

O=[N+]([O-])c1ccc(O)c(CNCCCl)c1
LD50: 25 mg/kg

O=C(O)c1ccc2ccccc2c1
LD50: 4500 mg/kg

O=C1CCCCC(=O)N1
LD50: 22600 mg/kg

CCCCCCCCc1ccc(-c2ccccc2)cc1
LD50: 2400 mg/kg

CC(=O)Oc1ccc(C2(c3ccc(OC(C)=O)cc3)Oc3ccccc3NC2=O)cc1
LD50: 8000 mg/kg

CN(C)CC(=O)N/N=C/c1c(Cl)nc2sccn12
LD50: 1500 mg/kg

Cc1cc[nH]n1
LD50: 710 mg/kg

CCOC(=O)C(C)O (stereo not drawn)
LD50: 8200 mg/kg

Cc1ccc2c(-c3ccccc3)nc(=O)n(C(C)C)c2c1
LD50: 759 mg/kg

CCc1ccc(C)nc1
LD50: 368 mg/kg

Cc1c(Cl)c(Br)c(Cl)c2[nH]c(C(F)(F)F)nc12
LD50: 18.3 mg/kg

OCCN1CCN(CCCN2c3ccccc3C=Cc3ccccc32)CC1
LD50: 1110 mg/kg and 900 mg/kg

CCCCCC=CCC1CC(=O)OC1=O (stereo not drawn)
LD50: 1100 mg/kg

CC12CCC3c4ccc(O)cc4CCC3C1CC[C@@H]2OC(=O)COC(=O)CCCc1ccc(N(CCCl)CCCl)cc1 (stereo partly drawn)
LD50: 682 mg/kg
